One assay concerns CT26 tumor. The experiment in a line: Tumor growth inhibition test in CT26 tumor-bearing mice. To be noted: αPD-1 5 mg/kg i.p. every 3 days x3. The class given is in vivo.
The next assay relates to CT26 cells. In words: Ability of PDC to inhibit exosome secretion in CT26 cells (NTA). More on the design: dose or concentration left out as unconfirmed. To be noted: FIG. 14. The class given is cell-based, murine. As for the experimental part:
To evaluate the ability of PEG-b-Poly(L-lysine-CDM-SFX) to inhibit the secretion of exosomes, CT26 cells, a murine colon cancer cell line, were treated with 100 µM of SFX and the same amount of PDC, exosomes from the supernatant were separated, and secreted exosomes were quantitatively analyzed.
In addition, to evaluate the ability of PEG-SS-AMB to inhibit the secretion of exosomes, CT26 cells, a murine colon cancer cell line, were treated with […] of PEG-SS-AMB, exosomes from the supernatant were separated, and secreted exosomes were quantitatively analyzed.

The test system of the next assay is exosomal PD-L1. The experiment in a line: Exosomal PD-L1 in plasma of CT26 tumor-bearing mice (ELISA). To be noted: SFX 200 mg/kg, αPD-1 5 mg/kg, FIG. 4C. The class given is in vivo.

Protocol for exosomal PD-L1: To assess PD-L1 on EXOs isolated from mouse plasma, ELISA plates were coated with a monoclonal antibody against PD-L1 (R&D Systems, Minneapolis, MN, USA) overnight at 25° C. Free binding sites were blocked with blocking buffer for 2 h at 25° C. After washing the plates with 0.05% Tween-20 in PBS, EXOs were added to each well and incubated for 2 h at 25° C. […] The plate was incubated for 20 min with a substrate solution composed of H2O2 and tetramethylbenzidine. After the addition of a stop solution containing 2N H2SO4 (R&D Systems, DY994), the plate was immediately read at 450 nm using an xMark™ microplate reader (Bio-Rad).

Turning to `COc1ccccc1Oc1c(NS(=O)(=O)c2ccc(C(C)(C)C)cc2)nc(-c2ncccn2)nc1OCCO` [BST, bosentan], the “tumor growth (tumor volume)” value in the assay with CT26 tumor (BST 10 mg/kg orally daily, FIG. 16B) was “effectively retarded”.
Regarding `CCCNS(=O)(=O)Nc1ncnc(OCCOc2ncc(Br)cn2)c1-c1ccc(Br)cc1` [MCT, macitentan], the “tumor growth (tumor volume)” value in the assay with CT26 tumor (MCT 50 mg/kg orally daily, FIG. 17B) was “effectively retarded”.
As to `Cc1noc(NS(=O)(=O)c2ccc(N)cc2)c1C` [SFX, sulfisoxazole], the “inhibition of exosome secretion compared to the untreated control group” value with CT26 cells is on record as “more than 50%”. Also, in the assay on exosomal PD-L1, the “exosomal PD-L1 levels in the plasma” value is listed as “significantly decreased”.

(Values after patent publication US20250082773A1, “COMBINATION THERAPY USING EXOSOME SECRETION INHIBITOR AND IMMUNE CHECKPOINT INHIBITOR” (Research & Business Foundation SUNGKYUNKWAN UNIVERSITY, priority 2021, published 2025).)
